Data on 47 compounds can be found in the Biogen ADME set (Fang et al. 2023).

The conditions of the data set: for aqueous solubility: pH 6.8.

In brackets after ≈: the same amount, converted by molar mass.

In turn, `COc1ccc(Cc2noc(-c3cccc4c3OCC(=O)N4)n2)cc1` came in with an intrinsic clearance, human liver microsomes of 1.12 L/h/kg and an intrinsic clearance, rat liver microsomes of 8.89 L/h/kg.

`Cn1ccnc1C1CCN(C(=O)COCc2nc3cc(F)ccc3[nH]2)CC1` returned an intrinsic clearance, human liver microsomes of at most 0.284 L/h/kg and an intrinsic clearance, rat liver microsomes of 3.69 L/h/kg.

As a reminder, the aqueous solubility is how much of the substance goes into solution per volume. Low readings indicate little dissolved substance, high ones much dissolved substance. For `NC(=O)Cn1cc(-c2ccc(F)cc2)cn1`, the MDR1-MDCK efflux ratio came to 0.87; the intrinsic clearance, human liver microsomes was at most 0.284 L/h/kg; the intrinsic clearance, rat liver microsomes was at most 0.64 L/h/kg; the aqueous solubility turned out to be 0.028 mg/mL (≈ 128 µM).

For `O=C(NCC(=O)N1CCN(C2CC2)CC1)c1ccccc1`, the MDR1-MDCK efflux ratio was 0.659; the intrinsic clearance, human liver microsomes was at most 0.284 L/h/kg; the intrinsic clearance, rat liver microsomes was at most 0.64 L/h/kg; the aqueous solubility was 0.0623 mg/mL (≈ 217 µM).

`CC1(C(=O)O)CCN(Cc2ccccc2)CC1` gave an intrinsic clearance, human liver microsomes of at most 0.284 L/h/kg; an intrinsic clearance, rat liver microsomes of at most 0.64 L/h/kg; an aqueous solubility of 0.0449 mg/mL (≈ 193 µM).

Consider `COc1ccc(S(=O)(=O)CCC(=O)Nc2ccc3c(c2)N(C)C(=O)CO3)cc1`, for which the MDR1-MDCK efflux ratio turned out to be 27.6; the intrinsic clearance, human liver microsomes is at most 0.284 L/h/kg; the intrinsic clearance, rat liver microsomes was determined as 6.55 L/h/kg; the aqueous solubility was 0.0622 mg/mL (≈ 154 µM).

`N#CCCn1nc(C(F)(F)F)cc1O` displayed an aqueous solubility of 0.0231 mg/mL (≈ 113 µM).

As to `CC(C)c1nc(CCn2ccnc2-c2ccoc2)cs1`, the MDR1-MDCK efflux ratio was determined as 0.661; the intrinsic clearance, human liver microsomes was 14 L/h/kg; the intrinsic clearance, rat liver microsomes came out at 129 L/h/kg; the aqueous solubility is 0.0293 mg/mL (≈ 102 µM).

`CC(=O)N1CCN(c2c(Cl)cccc2NC(=O)COc2ccc(C(C)C)cc2)CC1`: the MDR1-MDCK efflux ratio is 2.13; the intrinsic clearance, human liver microsomes was 8.06 L/h/kg; the intrinsic clearance, rat liver microsomes was determined as 119 L/h/kg; the aqueous solubility worked out at 0.0027 mg/mL (≈ 6.28 µM).

Regarding `O=C1Oc2nc3cc4c(cc3cc2CN1CCN1CCOCC1)OCO4`, the MDR1-MDCK efflux ratio stood at 2.42; the intrinsic clearance, human liver microsomes was determined as 0.311 L/h/kg; the intrinsic clearance, rat liver microsomes came to 1.73 L/h/kg; the aqueous solubility came to 0.0096 mg/mL (≈ 26.9 µM).

`O=C(CSC1CCCC1)NCCn1nc2c(cc1=O)CCCC2`: the MDR1-MDCK efflux ratio came to 9.14; the intrinsic clearance, human liver microsomes worked out at 4.26 L/h/kg; the intrinsic clearance, rat liver microsomes came out at 71 L/h/kg; the aqueous solubility came to 0.0608 mg/mL (≈ 181 µM).

On to `O=C1CC[C@H](O)[C@@H](c2cccc(Cl)c2)N1Cc1ccccc1`, for which the MDR1-MDCK efflux ratio worked out at 3.79; the intrinsic clearance, human liver microsomes came out at 0.656 L/h/kg; the intrinsic clearance, rat liver microsomes came to 27 L/h/kg; the aqueous solubility came to 0.119 mg/mL (≈ 375 µM).

Turning to `CN(CCO)C(=O)c1ccc(-c2cccc(C(F)(F)F)n2)cc1`, the MDR1-MDCK efflux ratio was found to be 1.52; the intrinsic clearance, human liver microsomes is at most 0.284 L/h/kg; the intrinsic clearance, rat liver microsomes was found to be 3.26 L/h/kg.

On to `COc1ccccc1C(=O)Nc1cccc(-c2ccnc(C)n2)c1`, for which the intrinsic clearance, human liver microsomes is 3.62 L/h/kg; the intrinsic clearance, rat liver microsomes turned out to be 10 L/h/kg; the aqueous solubility was determined as 0.0464 mg/mL (≈ 145 µM).

Take `O=C(CCn1cc(Br)cn1)Nc1nc2ccccc2n1CCN1CCOCC1`: the aqueous solubility turned out to be 0.0423 mg/mL (≈ 94.6 µM).

On to `O=C(NCC1CC1)c1cncn1-c1ccc(F)cc1`, for which the MDR1-MDCK efflux ratio came to 1.26; the intrinsic clearance, human liver microsomes is at most 0.284 L/h/kg; the intrinsic clearance, rat liver microsomes is at most 0.64 L/h/kg; the aqueous solubility was 0.0522 mg/mL (≈ 201 µM).

Consider `Fc1ccc(CNc2nnc(-c3ccc4c(c3)OCO4)o2)cc1`, for which the MDR1-MDCK efflux ratio came to 0.313; the intrinsic clearance, human liver microsomes came to 5.71 L/h/kg; the intrinsic clearance, rat liver microsomes came out at 270 L/h/kg; the aqueous solubility is 0.00257 mg/mL (≈ 8.2 µM).

Compound `NC1(c2noc(-c3cccnc3)n2)CCCCCC1` displayed an intrinsic clearance, human liver microsomes of at most 0.284 L/h/kg and an intrinsic clearance, rat liver microsomes of 26.6 L/h/kg.

Take `c1ccc(-c2cc3c(N4CCC(c5ncc[nH]5)CC4)ncnc3s2)cc1`: the MDR1-MDCK efflux ratio was found to be 17.8; the intrinsic clearance, human liver microsomes worked out at 7.01 L/h/kg; the intrinsic clearance, rat liver microsomes turned out to be 93.1 L/h/kg; the aqueous solubility turned out to be 0.00415 mg/mL (≈ 11.5 µM).

Regarding `Cc1cc(N(C)Cc2ccc(N)nc2)nc(-c2ccncc2)n1`, the MDR1-MDCK efflux ratio amounted to 4.4; the intrinsic clearance, human liver microsomes was found to be 2.65 L/h/kg; the intrinsic clearance, rat liver microsomes turned out to be 19.7 L/h/kg; the aqueous solubility came to 0.0289 mg/mL (≈ 94.5 µM).

On to `CCCOc1ccn2c(C(C)=O)cc(-c3ccccc3S(C)(=O)=O)c2c1`, for which the MDR1-MDCK efflux ratio came out at 1.33; the intrinsic clearance, human liver microsomes was determined as 3.37 L/h/kg; the intrinsic clearance, rat liver microsomes came to 33.9 L/h/kg.

Take `O=c1[nH]c2ccccc2n1C1CCN(CCOc2ccccc2)CC1`: the MDR1-MDCK efflux ratio was 2.14; the intrinsic clearance, human liver microsomes was determined as 1.78 L/h/kg; the intrinsic clearance, rat liver microsomes was found to be 21.4 L/h/kg; the aqueous solubility is 0.0474 mg/mL (≈ 140 µM).

As for `COc1cc(F)ccc1-c1ncnc(Nc2cccc(C[S@@](C)(=N)=O)c2)n1`, the MDR1-MDCK efflux ratio was 150; the fraction unbound, human plasma was found to be 0.393; the fraction unbound, rat plasma turned out to be 0.375; the intrinsic clearance, human liver microsomes is at most 0.284 L/h/kg. The intrinsic clearance, rat liver microsomes is at most 0.64 L/h/kg and the aqueous solubility is 0.0537 mg/mL (≈ 139 µM).

As to `CN(C)c1cccc(Cn2ccnc2-c2ccc(O)cc2)c1`, the MDR1-MDCK efflux ratio came to 3.77; the intrinsic clearance, human liver microsomes turned out to be 4.66 L/h/kg; the intrinsic clearance, rat liver microsomes was 62.2 L/h/kg; the aqueous solubility was 0.0272 mg/mL (≈ 92.5 µM).

With `CCC(C)(C)N1CCN(C(=O)NCCc2cc(C)no2)CC1`, the MDR1-MDCK efflux ratio was 7.18; the intrinsic clearance, human liver microsomes was at most 0.284 L/h/kg; the intrinsic clearance, rat liver microsomes turned out to be 16.4 L/h/kg.

With `CC(=O)N1c2ccc(S(=O)(=O)Nc3cccc(-c4cnco4)c3)cc2CC1C` (stereo not drawn), the MDR1-MDCK efflux ratio stood at 11.5; the intrinsic clearance, human liver microsomes came to 4.06 L/h/kg; the intrinsic clearance, rat liver microsomes stood at 16.5 L/h/kg.

As for `OC(Cn1cncn1)(Cn1cncn1)c1ccc(F)cc1F`, the MDR1-MDCK efflux ratio is 5.25; the intrinsic clearance, human liver microsomes is at most 0.284 L/h/kg; the intrinsic clearance, rat liver microsomes was at most 0.64 L/h/kg; the aqueous solubility was 0.0429 mg/mL (≈ 140 µM).

Take `O=C(Cc1c(F)cccc1Cl)Nc1cccc2cnccc12`: the MDR1-MDCK efflux ratio came out at 0.889; the intrinsic clearance, human liver microsomes stood at 3.76 L/h/kg; the intrinsic clearance, rat liver microsomes was determined as 17.3 L/h/kg; the aqueous solubility was found to be 0.00209 mg/mL (≈ 6.64 µM).

In turn, `c1ccc2[nH]c(C3CCNCC3)nc2c1` displayed an aqueous solubility of 0.0563 mg/mL (≈ 280 µM).

For `OC1(Cn2nnc(-c3cccnc3)n2)CCCCC1`, the MDR1-MDCK efflux ratio was determined as 0.66; the intrinsic clearance, human liver microsomes is at most 0.284 L/h/kg; the intrinsic clearance, rat liver microsomes worked out at 8.51 L/h/kg; the aqueous solubility was 0.0251 mg/mL (≈ 96.7 µM).

For `Cc1cc(NC(=O)CCc2c(C)nn(C)c2C)no1`, the MDR1-MDCK efflux ratio came to 3.86; the intrinsic clearance, human liver microsomes is at most 0.284 L/h/kg; the intrinsic clearance, rat liver microsomes was 2.7 L/h/kg; the aqueous solubility came to 0.0507 mg/mL (≈ 193 µM).

As for `CCc1nc2ccccc2n1CC(=O)Nc1ncc(C)s1`, the MDR1-MDCK efflux ratio came to 29.4; the intrinsic clearance, human liver microsomes was 0.512 L/h/kg; the intrinsic clearance, rat liver microsomes is 20.9 L/h/kg; the aqueous solubility is 0.0492 mg/mL (≈ 164 µM).

Consider `NC(=O)c1cnn(Cc2cccc(F)c2)c1`, for which the intrinsic clearance, human liver microsomes is at most 0.284 L/h/kg and the intrinsic clearance, rat liver microsomes is at most 0.64 L/h/kg.

As for `C[C@@H](c1ccc2ccc(O[C@H]3CC[C@@H](C(F)(F)F)CC3)c(C(F)(F)F)c2c1)N1C2CCC1CC(C(=O)O)C2` (stereo partly drawn), the MDR1-MDCK efflux ratio is 51.8; the intrinsic clearance, human liver microsomes came to 0.455 L/h/kg; the intrinsic clearance, rat liver microsomes turned out to be 2.14 L/h/kg; the aqueous solubility worked out at 0.0732 mg/mL (≈ 135 µM).

`O=C(CCn1cncn1)N(CC#Cc1ccccc1)C1CCCC1`: the MDR1-MDCK efflux ratio worked out at 1.98; the intrinsic clearance, human liver microsomes is 15.8 L/h/kg; the intrinsic clearance, rat liver microsomes amounted to 81 L/h/kg; the aqueous solubility amounted to 0.0225 mg/mL (≈ 69.7 µM).

Consider `CC(C)Cn1c(=O)[nH]c(=O)c2c1nc1n2CCCCC1`, for which the MDR1-MDCK efflux ratio amounted to 3.54; the intrinsic clearance, human liver microsomes was determined as 0.431 L/h/kg; the intrinsic clearance, rat liver microsomes came out at 1.69 L/h/kg; the aqueous solubility amounted to 0.0627 mg/mL (≈ 227 µM).

For `CNC(=O)C1CCN(Cc2ncc(-c3ccc(F)cc3)o2)CC1`, the MDR1-MDCK efflux ratio is 4.86; the intrinsic clearance, human liver microsomes was at most 0.284 L/h/kg; the intrinsic clearance, rat liver microsomes was determined as 0.675 L/h/kg; the aqueous solubility came to 0.0198 mg/mL (≈ 62.4 µM).

Regarding `COc1ccccc1C(=O)CSc1nncn1C1CC1`, the MDR1-MDCK efflux ratio was found to be 1.3; the intrinsic clearance, human liver microsomes turned out to be 1.48 L/h/kg; the intrinsic clearance, rat liver microsomes amounted to 27.8 L/h/kg.

On to `Cc1cc(F)c(C(=O)Nc2cccc(-c3nncn3C(C)C)n2)cc1-n1cnc(C2CC2)c1`, for which the aqueous solubility came to 0.0648 mg/mL (≈ 145 µM).

The compound `COc1nc(C#N)c(N2CCOCC2)o1` returned an aqueous solubility of 0.0444 mg/mL (≈ 212 µM).

In the case of `CCOc1ccc(S(=O)(=O)N(CC)CC(=O)Nc2ccc3c(c2)OCO3)cc1`, the MDR1-MDCK efflux ratio came to 0.853 and the aqueous solubility amounted to 0.00044 mg/mL (≈ 1.08 µM).

In the case of `C=C(C)COc1ccc(C(=O)NCCc2cn3ccccc3n2)cc1`, the intrinsic clearance, human liver microsomes was 6.93 L/h/kg; the intrinsic clearance, rat liver microsomes was 131 L/h/kg; the aqueous solubility is 0.0274 mg/mL (≈ 81.7 µM).

Turning to `Cc1cc(C(=O)NC2CCN(C(=O)c3cc(C)sc3C)CC2)no1`, the MDR1-MDCK efflux ratio was determined as 1.56; the intrinsic clearance, human liver microsomes came out at 0.586 L/h/kg; the intrinsic clearance, rat liver microsomes came to 5.62 L/h/kg; the aqueous solubility turned out to be 0.0612 mg/mL (≈ 176 µM).

Take `C[C@]12CCC3=C4CCC(=O)C=C4CC[C@H]3[C@@H]1CC[C@@]2(O)CC#N`: the MDR1-MDCK efflux ratio was 3.64; the intrinsic clearance, human liver microsomes came out at 1.26 L/h/kg; the intrinsic clearance, rat liver microsomes came to 11.1 L/h/kg.

Take `CN(C)CCN(Cc1ccccc1)C(=O)CCC(=O)Nc1ncc(-c2ccccc2)n1C`: the MDR1-MDCK efflux ratio came to 38.2; the intrinsic clearance, human liver microsomes is 5.52 L/h/kg; the intrinsic clearance, rat liver microsomes turned out to be 16.7 L/h/kg; the aqueous solubility worked out at 0.0592 mg/mL (≈ 136 µM).

As to `CC(C)COc1ccc(C(C)(C)NCc2nnc(C3CCC3)o2)cc1`, the intrinsic clearance, human liver microsomes was 7.59 L/h/kg and the intrinsic clearance, rat liver microsomes stood at 184 L/h/kg.

Turning to `O=c1cc2c(n[nH]1)-c1cnc(N3CCCCC3)nc1CC2`, the MDR1-MDCK efflux ratio was found to be 0.565; the intrinsic clearance, human liver microsomes came to 0.292 L/h/kg; the intrinsic clearance, rat liver microsomes was 6.58 L/h/kg.
